Assay results as given in US9938273B2 (Plexxikon Inc., priority 2015, dated 2018).

Legend:
[1] = test system: MOLM-14 D835Y cells, FLT3 ITD and FLT3 D835Y; assay: Cell proliferation assay (CellTiter-Glo), MOLM-14 D835Y; assay type: cell-based; settings: Homo sapiens, 72 h, 3d-Growth, GMean
From the text: (§1) The FLT3 inhibitors may be assessed using the MOLM-14, Acute Myeloid Leukemia cell line that endogenously expresses FLT3 ITD or derivatives of the human FLT3 AML cell line which acquired the D835Y (activation loop) of F691L (gatekeeper) mutation after selection in escalating doses of the FLT3 Inhibitor AC220. FLT3 inhibitors may also be assessed using cells that are engineered to express mutant FLT3. For engineered cells, murine Ba/F3 cells were transfected with full-length FLT3 ITD/D835Y mutations. The parental BA/F3 cells are dependent upon Interleukin-3 (IL-3) for survival, and introduction of the FLT3 constructs rendered these cells dependent upon FLT3 kinase activity when cultured in the absences of IL-3. Engineered BA/F3 cell growth assays can be performed in either the […] of IL-3, to assess the compound inhibition of FLT3 or to detect the presence of off-target activity, respectively. Inhibitors of FLT3 kinase activity reduce or eliminate the FLT3 oncogenic signaling, resulting in reduced cell proliferation. This inhibition is measured as a function of compound concentration to asses IC50 values.
(§2) Cell lines used in proliferation assays are as follows in Table 3:
(§3) Cells were seeded at 1×10^4 cells per well of a 96 well cell culture plate in 50 μl of cell culture medium. Compounds were dissolved in DMSO, typically at a concentration of 0.5 mM and were serially diluted 1:3 for a total of eight points and added to the cells to final concentrations of […], 0.0041, 0.0014 and 0.00046 μM in 100 μl cell culture medium (final concentration 0.2% DMSO). […] The cells were incubated at 37° C., 5% CO2 for three days. CellTiter-Glo Buffer (Promega Cell Viability Assay catalog #G7573) and substrate were equilibrated to room temperature, and enzyme/substrate Recombinant Firefly Luciferase/Beetle Luciferin was reconstituted. The cell plates were equilibrated to room temperature for 30 minutes, then lysed by addition of an equivalent volume of the Celltiter-Glo Reagent. The plate was mixed for 10 minutes on a plate shaker to lyse the cells. The plates were read on a Tecan M1000 using Luminescence protocol modified to read 0.1 s per well. The luminescence reading assesses the ATP content, which correlates directly with cell number such that the reading as a function of compound concentration was used to determine the IC50 value.

[2] = test system: MOLM-14 F691L cells, FLT3 ITD and FLT3 F691L; assay: Cell proliferation assay (CellTiter-Glo), MOLM-14 F691L; assay type: cell-based; settings: Homo sapiens, 72 h, 3d-Growth, GMean
From the text: as §1, §2, §3

FLT3-D835Y = target: T1, FLT3-D835Y (Homo sapiens, UniProt P36888, D835Y); assay: AlphaScreen kinase assay with recombinant enzyme, FLT3-D835Y; assay type: biochemical; settings: 8pt, GMean
T1 construct: purchased Invitrogen PV3967
T1 sequence (P36888 27-993 D835Y): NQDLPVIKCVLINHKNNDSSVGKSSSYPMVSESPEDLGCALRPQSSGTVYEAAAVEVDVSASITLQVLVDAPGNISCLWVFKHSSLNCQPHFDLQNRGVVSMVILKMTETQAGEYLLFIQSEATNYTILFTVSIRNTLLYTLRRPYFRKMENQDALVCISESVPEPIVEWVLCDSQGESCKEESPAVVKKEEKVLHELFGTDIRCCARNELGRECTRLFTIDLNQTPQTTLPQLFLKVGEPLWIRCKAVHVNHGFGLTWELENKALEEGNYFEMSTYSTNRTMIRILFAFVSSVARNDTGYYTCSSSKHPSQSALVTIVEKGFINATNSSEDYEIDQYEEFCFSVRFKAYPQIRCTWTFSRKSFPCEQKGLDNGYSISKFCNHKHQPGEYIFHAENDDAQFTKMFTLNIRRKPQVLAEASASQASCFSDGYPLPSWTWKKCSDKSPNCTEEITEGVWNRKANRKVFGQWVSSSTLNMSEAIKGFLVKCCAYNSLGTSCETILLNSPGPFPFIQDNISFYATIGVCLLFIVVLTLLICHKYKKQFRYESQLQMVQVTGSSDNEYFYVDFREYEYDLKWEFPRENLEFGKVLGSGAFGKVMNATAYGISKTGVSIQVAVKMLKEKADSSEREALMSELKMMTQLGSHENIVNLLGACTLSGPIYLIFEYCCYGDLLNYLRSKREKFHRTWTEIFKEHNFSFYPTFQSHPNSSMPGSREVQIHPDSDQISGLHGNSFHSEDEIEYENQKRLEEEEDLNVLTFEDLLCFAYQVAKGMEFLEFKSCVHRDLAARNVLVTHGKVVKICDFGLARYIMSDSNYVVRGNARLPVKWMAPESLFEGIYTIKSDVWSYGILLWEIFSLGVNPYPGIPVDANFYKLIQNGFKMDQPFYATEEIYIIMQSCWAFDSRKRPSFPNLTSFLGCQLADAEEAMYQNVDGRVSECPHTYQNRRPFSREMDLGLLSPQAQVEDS
Experimental: (§4) In order to determine the effect of compounds on FLT3 catalytic activity, kinase assays using recombinant enzymes and AlphaScreen® technology have been established. The catalytic activity of c-kit activity was also measured to determine selectivity of the compounds. When the kinases are catalytically active, they phosphorylate a biotinylated peptide substrate on tyrosine residues. Using AlphaScreen® technology, the ability of the compounds to affect the catalytic activity of the kinases can be measured quantitatively. The peptide substrate is immobilized by the AlphaScreen® Streptavidin Donor beads and, upon phosphorylation by a tyrosine kinase, can bind to AlphaScreen® Anti-Phosphotyrosine (PY20) Acceptor beads. Upon excitation of these beads with laser light at 680 nm, singlet oxygen is produced. This singlet oxygen is rapidly quenched, unless the AlphaScreen® Anti-Phosphotyrosine (PY20) Acceptor beads are in close proximity, in which case a proximity signal can be measured at 580 nm. In the presence of catalytic activity, there is a very strong proximity signal. Selective kinase inhibitors affect a decrease in this proximity signal through a decrease in tyrosine phosphorylation of the peptide substrate.
(§5) The assay was performed as summarized below.
(§6) Poly (Glu4-Tyr) Peptide, biotin conjugate [Biotin-GG(EEEEY)10EE] (SEQ ID NO: 4)
(§7) Final concentration=30 nM
(§8) Final concentration for IC50 determination=10 μM (FLT3-D835Y or FLT3-ITD) or 100 μM (c-KIT)
(§9) AlphaScreen® Phosphotyrosine (PY20) Assay Kit
(§10) Final concentration=10 μg/mL
(§11) Dilute compounds in DMSO to 20× final concentration.
(§12) Add 1 μl of compound to each well of 384 well reaction plate (Perkin Elmer #6005359).
(§13) Mix enzyme and Poly (Glu4-Tyr) Peptide substrate at 1.33× final concentration in assay buffer.
(§14) Mix ATP at 5× final concentration in assay buffer.
(§15) Add 15 μL enzyme/substrate mixture to the reaction plate.
(§16) Add 4 μL of ATP to the reaction plate.
(§17) Mix Streptavidin Donor beads at 6× final concentration in Stop/Detection buffer.
(§18) Add 5 μL Streptavidin Donor beads to the reaction plate. Centrifuge 1 minute, shake to mix, and incubate at room temperature for 20 minutes.
(§19) Mix Anti-Phosphotyrosine (PY20) Acceptor beads at 6× final concentration in Stop/Detection buffer.
(§20) Add 5 μL Anti-Phosphotyrosine (PY20) beads to the reaction plate.
(§21) Centrifuge 1 minute, shake to mix, and incubate at room temperature for 60 minutes.
(§22) Read plate on Wallac EnVision™ 2103 Multilabel Reader.

[3] = target: T2, BA/F3-FLT3-ITD + D835Y cells (Homo sapiens, UniProt P36888, D835Y, cells depend on it, form not given); assay: Cell proliferation assay (CellTiter-Glo), engineered BA/F3 cells; assay type: cell-based, murine; settings: BaF3 FLT3 ITD/D835Y cells, 3d-Growth; read-out: BaF3_FLT3 ITD/D835Y 3d-Growth: IC50
T2 sequence (P36888 1-993 D835Y): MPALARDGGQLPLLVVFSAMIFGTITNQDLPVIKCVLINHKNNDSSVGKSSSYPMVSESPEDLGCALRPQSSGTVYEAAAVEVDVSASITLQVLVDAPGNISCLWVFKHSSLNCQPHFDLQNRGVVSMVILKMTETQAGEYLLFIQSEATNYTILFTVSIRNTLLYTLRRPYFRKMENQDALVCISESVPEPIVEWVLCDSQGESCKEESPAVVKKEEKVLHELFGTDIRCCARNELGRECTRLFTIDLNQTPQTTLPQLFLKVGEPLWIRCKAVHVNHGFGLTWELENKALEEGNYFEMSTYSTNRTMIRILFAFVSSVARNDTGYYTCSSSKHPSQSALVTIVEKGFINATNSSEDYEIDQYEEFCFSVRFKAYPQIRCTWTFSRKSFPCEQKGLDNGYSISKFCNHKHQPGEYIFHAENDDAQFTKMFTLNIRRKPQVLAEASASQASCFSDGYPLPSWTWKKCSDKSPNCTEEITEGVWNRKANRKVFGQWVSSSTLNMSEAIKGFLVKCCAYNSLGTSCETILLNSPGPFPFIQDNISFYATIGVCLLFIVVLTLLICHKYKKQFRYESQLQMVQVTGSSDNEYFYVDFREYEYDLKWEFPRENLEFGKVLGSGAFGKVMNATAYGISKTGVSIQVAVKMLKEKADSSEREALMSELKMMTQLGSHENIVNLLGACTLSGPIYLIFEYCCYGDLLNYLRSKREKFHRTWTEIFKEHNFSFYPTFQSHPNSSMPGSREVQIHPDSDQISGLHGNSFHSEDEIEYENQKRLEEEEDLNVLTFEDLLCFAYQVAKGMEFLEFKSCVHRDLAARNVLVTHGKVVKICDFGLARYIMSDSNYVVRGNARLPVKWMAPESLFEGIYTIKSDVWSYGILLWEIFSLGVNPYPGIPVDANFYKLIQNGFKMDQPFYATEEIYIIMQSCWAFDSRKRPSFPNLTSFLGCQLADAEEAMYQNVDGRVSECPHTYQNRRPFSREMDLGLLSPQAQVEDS
From the text: as §1, §2, §3

c-KIT = target: T3, c-KIT (Homo sapiens, UniProt P10721); assay: AlphaScreen kinase assay with recombinant enzyme, c-KIT; assay type: biochemical; settings: 100ATP, 8pt, GMean
T3 construct: purchased Millipore 14-559K
T3 sequence (P10721 26-976): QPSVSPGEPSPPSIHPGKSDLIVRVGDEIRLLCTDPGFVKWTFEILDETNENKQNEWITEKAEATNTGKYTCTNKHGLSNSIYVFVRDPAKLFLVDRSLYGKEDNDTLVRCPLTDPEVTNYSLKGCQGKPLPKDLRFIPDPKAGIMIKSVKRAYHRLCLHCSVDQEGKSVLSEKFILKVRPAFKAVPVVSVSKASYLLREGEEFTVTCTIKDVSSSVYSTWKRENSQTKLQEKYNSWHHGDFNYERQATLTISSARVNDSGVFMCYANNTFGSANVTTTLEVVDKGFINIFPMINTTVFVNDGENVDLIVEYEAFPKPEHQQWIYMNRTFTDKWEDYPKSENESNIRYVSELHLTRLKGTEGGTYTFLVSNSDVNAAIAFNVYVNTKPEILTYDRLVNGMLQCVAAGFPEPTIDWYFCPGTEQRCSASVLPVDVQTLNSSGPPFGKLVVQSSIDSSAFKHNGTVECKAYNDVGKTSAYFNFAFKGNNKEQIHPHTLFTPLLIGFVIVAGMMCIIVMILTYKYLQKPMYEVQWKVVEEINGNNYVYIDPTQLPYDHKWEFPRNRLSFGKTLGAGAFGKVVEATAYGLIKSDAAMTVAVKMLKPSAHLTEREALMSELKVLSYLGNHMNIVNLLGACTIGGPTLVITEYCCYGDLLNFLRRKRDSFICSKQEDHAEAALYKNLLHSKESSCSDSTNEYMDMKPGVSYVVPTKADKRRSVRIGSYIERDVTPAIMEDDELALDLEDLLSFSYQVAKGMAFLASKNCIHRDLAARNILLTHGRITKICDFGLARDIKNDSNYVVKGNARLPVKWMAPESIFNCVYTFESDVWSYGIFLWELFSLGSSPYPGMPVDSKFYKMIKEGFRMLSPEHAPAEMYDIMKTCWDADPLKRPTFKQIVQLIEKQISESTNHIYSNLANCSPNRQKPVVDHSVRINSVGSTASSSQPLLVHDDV
Experimental: as §4, §5, §6, §7, §8, §9, §10, §11, §12, §13, §14, §15, §16, §17, §18, §19, §20, §21, §22

Row | Compound | IC50 [1] | IC50 [2] | IC50 (FLT3-D835Y) | GI50 [3] | IC50 (c-KIT)
1 | CC(C)(C#N)NC(=O)c1cccc(-c2cnc3[nH]c(-c4cnn(C5CCNCC5)c4)c(Cl)c3c2)n1 [Compound P-0207, 6-[3-chloro-2-[1-(4-piperidyl)pyrazol-4-yl]-1H-pyrrolo[2,3-b]pyridin-5-yl]-N-(1-cyano-1-methyl-ethyl)pyridine-2-carboxamide] | 0.0001 to 10 µM | 0.0001 to 10 µM | 0.0001 to 10 µM | – | –
2 | CC(C)(C#N)CNS(=O)(=O)c1cccc(-c2cnc3[nH]c(-c4ccccc4)cc3c2)n1 [Compound P-0108, N-(2-cyano-2-methyl-propyl)-6-(2-phenyl-1H-pyrrolo[2,3-b]pyridin-5-yl)pyridine-2-sulfonamide] | 0.0001 to 10 µM | – | – | 0.0001 to 10 µM | 50 to 100 µM
3 | N#CCCCNC(=O)c1cccc(-c2cnc3[nH]c(-c4ccccc4)cc3c2)n1 [Compound P-0128, N-(3-cyanopropyl)-6-(2-phenyl-1H-pyrrolo[2,3-b]pyridin-5-yl)pyridine-2-carboxamide] | 0.0001 to 10 µM | 0.0001 to 10 µM | 0.0001 to 10 µM | – | –
